Assay results as given in paper PMC7071076, “Antibacterial Activity and Pharmacokinetic Profile of a Promising Antibacterial Agent: 22-(2-Amino-phenylsulfanyl)-22-Deoxypleuromutilin” (Molecules, 2020).
Converted amounts (≈) assume the structure as drawn. Like-named read-outs stand apart in the source and are kept apart here.

Key:
[1] = tested on: MRSA N20; assay: MIC testing, clinical strain; type: cell-based; conditions: Staphylococcus aureus
Excerpt: (§1) Methicillin-resistant Staphylococcus aureus (MRSA) ATCC 43300, Staphylococcus aureus ATCC 29213, Escherichia coli ATCC 25922, Salmonella typhimurium ATCC 14028, Enterococcus faecalis ATCC 29212, and Enterococcus faecium ATCC 35667 were obtained from the China Institute of Veterinary Drug Control (Beijing, China). Five clinical strains of MRSA (N7, N9, N20, N30, and N54) were isolated from diseased pig tissues of South China Agricultural University and Foshan University Animal Hospital. All clinical strains were identified as MRSA by Gram stain, catalase reaction, coagulase test, staphylococcus API identification system test, MecA gene test, and methicillin MIC test.
(§2) The MIC of amphenmulin against MRSA, Escherichia coli, Salmonella typhimurium, Enterococcus faecalis, and Enterococcus faecium were determined using tiamulin as controls. MIC values were measured by the method of previous work. Staphylococcus aureus ATCC 29213 was used as the quality control bacteria, and the quality control range was referred to the Clinical and Laboratory Standards Institute (CLSI). The bacteria solution was diluted to ~10^6 CFU/mL with Mueller–Hinton (MH) broth for MRSA, Escherichia coli and Salmonella typhimurium while Trypticase Soy Broth for Enterococcus faecalis and Enterococcus faecium. Drugs were dissolved in an aqueous solution of N, N-dimethylformamide (DMF) at a concentration of 2560 µg/mL, and then diluted with broth to prepare working solution (1280 µg/mL). The drug susceptibility testing was performed in 96-well plate. A total of 20 µL of working solution was added into column 1 and well mixed as a 10-fold dilution, following which Serial 2-fold dilutions were prepared to provide concentration ranges of 128–0.0078 µg/mL. Blank broth (no cultures) and bacteria solution (drugs replaced by blank solvent) were set as drug-free controls. Each 96-well plate was cultured at 37 °C for 24 h. The MIC value is the lowest concentration of amphenmulin which inhibits the visible growth of bacteria. The experiment was repeated three times.

[2] = tested on: MRSA N30; assay: MIC testing, clinical strain; type: cell-based; conditions: Staphylococcus aureus
Excerpt: as §1, §2

[3] = tested on: MRSA N54; assay: MIC testing, clinical strain; type: cell-based; conditions: Staphylococcus aureus
Excerpt: as §1, §2

[4] = tested on: MRSA N7; assay: MIC testing, clinical strain; type: cell-based; conditions: Staphylococcus aureus
Excerpt: as §1, §2

[5] = tested on: MRSA N9; assay: MIC testing, clinical strain; type: cell-based; conditions: Staphylococcus aureus
Excerpt: as §1, §2

[6] = Pharmacokinetic study in mice; type: in vivo; conditions: female, ICR, mouse, plasma, 10 mg/kg
Protocol: Pharmacokinetic parameters of amphenmulin were measured according to previous reports with some modifications. Each group consisted of eight female SPF-ICR mice. Amphenmulin (1 mg/mL) was administered intravenously, intraperitoneally, and orally at a dose of 10 mg/kg, respectively. Formulation of amphenmulin was a filtered solution in 5% DMSO, 5% Tween-80, and 90% normal saline. Serial samples (each 0.2 mL) were collected from the ocular venous plexus and placed in a plastic centrifuge tube. The blood samples were placed at room temperature for 20 min and transferred to a 4 °C refrigerator for 12 h to promote blood coagulation. Then samples were centrifuged at 2000 r/min for 10 min to get serum. Serum samples were frozen at −20°C. 100 µL of samples was accurately absorbed and mixed with 100 µL of acetonitrile in a 1.5 mL centrifuge tube. The sample was mixed vigorously and centrifuged at 12,000 rpm for 10 min. The supernatant was transferred, filtered through a 0.22 μm cellulose membrane filter and used for LC-MS/MS analysis. Equipment and analysis conditions were shown in supplemental data. The pharmacokinetic parameters of amphenmulin were determined from the mean plasma concentration with noncompartmental analysis in WinNonlin 5.2 software (Pharsight, Mountain View, CA, USA). Data were shown as mean ± standard deviation (SD).

[7] = intraperitoneal, mice, intraperitoneal 10 mg/kg, n = 8, read-out: plasma concentration, mean ± S.D
[8] = iv, intravenous 10 mg/kg, mice 1-8 in order, read-out: plasma concentration, individual mice
[9] = iv, mice, intravenous 10 mg/kg, n = 8, read-out: plasma concentration, mean ± S.D

Question: Which MIC [1] does the source give for `C=C[C@]1(C)C[C@@H](OC(=O)CSc2ccccc2N)[C@]2(C)[C@H](C)CC[C@]3(CCC(=O)[C@H]32)[C@@H](C)[C@@H]1O` [Amphenmulin, 22-(2-amino-phenylsulfanyl)-22-deoxypleuromutilin] here?
Answer: 4 µg/mL (≈ 8.24 µM)

Question: And the MIC [2]?
Answer: 8 µg/mL (≈ 16.5 µM)

Question: What about the MIC [3] of the same molecule?
Answer: 0.0156 µg/mL (≈ 0.0321 µM)

Question: What about the MIC [4] of the same molecule?
Answer: 4 µg/mL (≈ 8.24 µM)

Question: What about the MIC [5] of the same molecule?
Answer: 0.0156 µg/mL (≈ 0.0321 µM)

Question: What about the concentration at 0.083 h [6, 7] of the same molecule?
Answer: 850 ± 320 ng/mL

Question: And the concentration at 0.25 h [6, 7]?
Answer: 1220 ± 460 ng/mL

Question: What about the concentration at 0.5 h [6, 7] of the same molecule?
Answer: 980 ± 420 ng/mL

Question: And the concentration at 0.75 h [6, 7]?
Answer: 740 ± 330 ng/mL

Question: What about the concentration at 1 h [6, 7] of the same molecule?
Answer: 580 ± 240 ng/mL

Question: And the concentration at 2 h [6, 7]?
Answer: 340 ± 160 ng/mL

Question: And the concentration at 4 h [6, 7]?
Answer: 190 ± 120 ng/mL

Question: What about the concentration at 6 h [6, 7] of the same molecule?
Answer: 120 ± 90 ng/mL

Question: What about the concentration at 8 h [6, 7] of the same molecule?
Answer: 70 ± 40 ng/mL

Question: And the concentration at 12 h ([6]; intraperitoneal, mice, intraperitoneal 10 mg/kg, 12 h, n = 8, read-out: plasma concentration, mean ± S.D)?
Answer: 30 ± 10 ng/mL

Question: And the AUC(0-inf) ([6]; ip, mice, intraperitoneal)?
Answer: 2520 ± 810 ng·h/mL

Question: What about the Cmax ([6]; ip, mice, intraperitoneal) of the same molecule?
Answer: 1340 ± 420 ng/mL

Question: And the MRT ([6]; ip, mice, intraperitoneal)?
Answer: 3.28 ± 0.42 h

Question: And the Tmax ([6]; ip, mice, intraperitoneal)?
Answer: 0.32 ± 0.21 h

Question: What about the bioavailability ([6]; ip, mice, intraperitoneal) of the same molecule?
Answer: 20.7%

Question: What about the half-life ([6]; ip, mice, intraperitoneal) of the same molecule?
Answer: 2.64 ± 0.72 h

Question: And the Vd/F ([6]; ip, mice, intraperitoneal, read-out: Vz/F)?
Answer: 15.9 ± 7.41 L/kg

Question: And the concentration at 0.083 h [6, 8]?
Answer: 3060 ng/mL

Question: What about the concentration at 0.25 h [6, 8] of the same molecule?
Answer: 2850 ng/mL

Question: And the concentration at 0.5 h [6, 8]?
Answer: 2650 ng/mL

Question: And the concentration at 0.75 h [6, 8]?
Answer: 2350 ng/mL

Question: What about the concentration at 4 h [6, 8] of the same molecule?
Answer: 850 ng/mL

Question: What about the concentration at 6 h [6, 8] of the same molecule?
Answer: 460 ng/mL

Question: And the concentration at 0.083 h [6, 9]?
Answer: 3940 ± 730 ng/mL

Question: What about the concentration at 0.25 h [6, 9] of the same molecule?
Answer: 3770 ± 640 ng/mL

Question: What about the concentration at 0.5 h [6, 9] of the same molecule?
Answer: 3530 ± 530 ng/mL

Question: What about the concentration at 0.75 h [6, 9] of the same molecule?
Answer: 3310 ± 740 ng/mL

Question: What about the concentration at 1 h [6, 9] of the same molecule?
Answer: 3190 ± 700 ng/mL

Question: What about the concentration at 2 h [6, 9] of the same molecule?
Answer: 2300 ± 650 ng/mL

Question: What about the concentration at 4 h [6, 9] of the same molecule?
Answer: 1010 ± 160 ng/mL

Question: What about the concentration at 6 h [6, 9] of the same molecule?
Answer: 420 ± 90 ng/mL

Question: And the concentration at 8 h [6, 9]?
Answer: 210 ± 80 ng/mL
